SMILES strings stand for the structures.

The test system of the experiment is T1, Ultra-Glo™ luciferase.
T1 construct: gene Firefly luciferase; HisLink purified; starting enzyme also obtained from Promega
The experiment in a line: luminescence, Michaelis-Menten. It is filed as biochemical. To be noted: 1 mM ATP, Bright-Glo buffer, 25 °C. The text has this: luminescence, Michaelis-Menten on Ultra-Glo™ luciferase
On to `CC1(C)SC(c2nc3ccc(O)cc3s2)=NC1C(=O)O` (racemic) [III-a, 2-(6-Hydroxybenzo[d]thiazol-2-yl)-5,5-dimethyl-4,5-dihydrothiazole-4-carboxylic acid], for which the Michaelis-Menten constant (Km) amounted to 7.47 µM. Turning to `O=C(O)C1N=C(c2nc3ccc(O)cc3s2)SC12CC2` (racemic) [III-b, 5-(6-Hydroxybenzo[d]thiazol-2-yl)-4-thia-6-azaspiro[2.4]hept-5-ene-7-carboxylic acid], the Michaelis-Menten constant (Km) was determined as 1.71 µM. Turning to `O=C(O)[C@H]1CSC(c2nc3ccc(O)cc3s2)=N1` [LH2, D-luciferin], the Km was found to be 0.49 µM.

In general, Km refers to the substrate concentration at which the rate is half of its maximum.

Values taken from publication PMC7735563, “5,5-Dialkylluciferins are thermal stable substrates for bioluminescence-based detection systems” (PLoS ONE, 2020).
